# Literature values, collected in patent US20070196488A1, “Oral matrix formulations comprising licarbazepine” (priority 2004, published 2007).
# Test system: epilepsy
# Conditions: racemate compared with both pure enantiomers
compound,measurement,value
"NC(=O)N1c2ccccc2CC(O)c2ccccc21 (racemic) [Licarbazepine, 10,11-dihydro-10-hydroxy-5H-dibenz[b,f]azepine-5-carboxamide]",efficacy against epilepsy,equal efficacy
